From paper PMC7559210, “Verification of P-Glycoprotein Function at the Dermal Barrier in Diffusion Cells and Dynamic “Skin-On-A-Chip” Microfluidic Device” (Pharmaceutics, 2020)
One block for each compound: values may come before it.

Tests used:
P-glycoprotein [1] = format: in vitro ADME
Experimental: (§1) Excised skin samples of both young and aged rats were obtained in the same way. Animals were anaesthetized intraperitoneally with chloral hydrate using a dose of 400 mg/kg. Under anesthesia, the hair of the abdominal skin was shaved off with an electric shaver, then epilated by an epilator cream (ISANA® cream from Rossmann, Burgwedel, Germany). Finally, the skin surface was washed and wiped dry. The abdominal skin was then mechanically sensitized 10 times by tape stripping (10 TS) with leucoplast (BSN Medical GmbH, Hamburg, Germany) to remove the upper layers of dead keratinocytes. The removal of the upper skin layer of the stratum corneum by adhesive tape has become a common practice in recent decades. The determination of the kinetics and penetration depth of different drugs by creating concentration–time profiles is facilitated by the use of the noninvasive method of tape stripping. Tape stripping makes it easier to evaluate the bioequivalence of topical dermatological dosage forms, and also makes it possible to reach detectable concentrations in the dermis and subcutis in preclinical animal models. […] Following these skin preparations, an approximately 1-cm, full-thickness skin incision was made in the caudal part of the abdominal area using scissors. After the first cutting with blunt Metzen scissors, fat, connecting tissue and blood vessels were carefully removed. Then, there were two options for continuing with the preparations, as follows. (1) Fresh skin preparation: Six skin disc-preparations were made from the abdominal, tape-stripped skin (approximately 3 cm in diameter each) for Franz diffusion cell study, or three skin square-preparations (approx. 1.5 cm × 1.5 cm) for skin-on-a-chip experiments. The skin preparations were stored in PPF at room temperature until the initiation of experiments, and were then placed between the donor and acceptor chambers on the cells of the Franz diffusion system or on the chip device. The stratum corneum layer of the skin contacted the test drug formulation, facing the donor chamber, while the dermal/subcutaneous surface contacted the PPF in the acceptor compartments. (2) Frozen skin preparation: Freshly prepared, tape stripped skin preparations were wrapped in an aluminum foil and stored in a deep freezer at −80 °C until the diffusion experiments. On the day of the study, the skin preparations were thawed at room temperature, and then placed on the Franz diffusion cells/chip devices in a similar way as that described for fresh skin preparation.
Hanson 6-Cell Manual Diffusion Test System-type Franz diffusion cells were used in the experiments (Hanson, ABL&E-JASCO Hungary Kft, Budapest, Hungary).
In each unit of the system, there was a heated magnetic stirrer chamber (acceptor compartment), stirred by a helical mixer (Figure 1). A magnet was placed on the bottom of the chamber and the helical mixer was connected to it. The acceptor chambers of the diffusion cells were filled with PPF. […] The diffusion surface was 1.767 cm^2. In the final step, a glass lid was placed onto the donor chambers. In each experiment, six parallel units were used and three cells of them always had the same arrangement with the same conditions. The cells were connected by plastic tubes. In these plastic connectors, distilled water at 32 °C was circulated to mimic the physiological dermal temperature. […] First, 0.5 mL samples were taken every 30 min from the acceptor compartments. After each sample collection, the removed fluid volume was replaced with PPF. Altogether, 60 samples were taken in each experiment, i.e., 10 from each unit. The collected samples were immediately placed on dry ice and stored at −80 °C until bioanalysis.
The dwell time of the transitions was 300 msec. Source conditions were as follows.

[2] = no source given; cited from earlier work
P-glycoprotein [3] = settings: topical PSC-833; erythromycin creams
Experimental: In the current study, a transdermal microdialysis technique was applied to investigate the skin penetration of test compounds through the dermal skin layer in anesthetized rats [24].
First, the epilation and shaving of the abdominal skin surface were performed under slight anesthesia, according to the protocol described in the ex vivo studies section.
The experiments were conducted the day after the skin preparation in order to eliminate the possible effect of the epilator cream and the dermal trauma caused by shaving. Animals were reanesthetized intraperitoneally with chloral hydrate with a dose of 400 mg/kg, and fixed in a supine position. In order to keep their body temperature at 37 °C during the experiment, they were placed on a heating pad. The abdominal skin was wiped dry and mechanically sensitized 10 times by tape-stripping with leucoplast (BSN Medical GmbH, Hamburg, Germany).
Two microdialysis probes (MAB11.8.10, Microbiotech, Stockholm, Sweden) were introduced in parallel at a distance of 2 cm through a guide needle (18G) into the dermal tissue. After the withdrawal of the guide needle, the probe membrane stayed in the dermal tissue, the position of which was previously verified by ultrasonic scanning. Probes were then fixed carefully with tape (Omnisilk, Hartmann, Germany).

P-glycoprotein [4] = settings: fresh young rat skin
Experimental: as §1, with “The stratum corneum layer of the skin contacted the test drug formulation, facing the donor chamber, while the dermal/subcutaneous surface contacted the PPF in the acceptor compartments. (2) Frozen skin preparation: Freshly prepared, tape stripped skin preparations were wrapped in an aluminum foil and stored in a deep freezer at −80 °C until the diffusion experiments. On the day of the study, the skin preparations were thawed at room temperature, and then placed on the Franz diffusion cells/chip devices in a similar way as that described for fresh skin preparation.” left out

P-gp = test system: P-gp; set-up: method as in PMID 18725258; settings: in vivo penetration experiments; cited from earlier work

effect of PSC-833 pretreatment on erythromycin permeability (AUC) (P-glycoprotein [1]; fresh skins, young and aged, 2% ERY cream, PSC-833 1 mg/mL DMSO, 100 μL, 10 min before, ANOVA, Tukey test): significant effect on permeability
effect of P-gp inhibitor on erythromycin absorption (P-glycoprotein [1]; frozen aged skin, 2% ERY cream): opposite effect
Compound: C/C=C/C[C@@H](C)C(=O)[C@H]1C(=O)N[C@@H](C(C)C)C(=O)N(C)CC(=O)N(C)[C@@H](CC(C)C)C(=O)N[C@@H](C(C)C)C(=O)N(C)[C@@H](CC(C)C)C(=O)N[C@@H](C)C(=O)N[C@H](C)C(=O)N(C)[C@@H](CC(C)C)C(=O)N(C)[C@@H](CC(C)C)C(=O)N(C)[C@@H](C(C)C)C(=O)N1C [PSC-833, valspodar]
effect of PSC-833 pretreatment on quinidine permeability (AUC) (P-glycoprotein [1]; fresh skins, young and aged, 2% QND cream, ANOVA, Tukey test): statistically relevant effect only on aged subjects

diffusion through frozen/thawed vs fresh skin (P-glycoprotein [1]; 2% ERY cream): enhanced compared to fresh skins
permeability in aged vs young skin (P-glycoprotein [1]; 2% ERY cream): increased in the aged skin samples
Compound: CC[C@H]1OC(=O)[C@H](C)[C@@H](O[C@H]2C[C@@](C)(OC)[C@@H](O)[C@H](C)O2)[C@H](C)[C@@H](O[C@@H]2O[C@H](C)C[C@H](N(C)C)[C@H]2O)[C@](C)(O)C[C@@H](C)C(=O)[C@H](C)[C@@H](O)[C@]1(C)O [erythromycin, Erythromycin]
logP (lipophilicity) [2]: 3.06
effect of P-gp modulation on drug absorption in vivo (P-glycoprotein [3]): moderate but reproducible reduction in drug absorption
dynamics of absorption in the 270-min observation period (P-glycoprotein [4]; 2% suspension cream): only the absorption phase could be reached, or the plateau was initiated

Compound: CCC(C)n1ncn(-c2ccc(N3CCN(c4ccc(OCC5COC(Cn6cncn6)(c6ccc(Cl)cc6Cl)O5)cc4)CC3)cc2)c1=O (stereo not shown) [itraconazole]
drug distribution in the skin after topical application with lack of or inhibition of P-gp (P-gp): decreased drug distributions therein

Compound: C=C[C@H]1C[N@@]2CC[C@H]1C[C@@H]2[C@@H](O)c1ccnc2ccc(OC)cc12 [quinidine]
permeability of the controls, aged vs young skin (P-glycoprotein [1]; fresh skins, DMSO pretreated, 2% QND cream): independent of age
effect of P-gp inhibition on transdermal delivery (P-glycoprotein [4]; 2% gel, PSC-833 pretreatment): dramatic reduction in transdermal delivery
plateau phase of skin penetration profile (P-glycoprotein [4]; 2% gel, flow 4 μL/min): 90 to 180 min

Compound: rhodamine
drug distribution in the skin after topical application with lack of or inhibition of P-gp (P-gp): decreased drug distributions therein
